Reference: paper PMC4701504, “Immunogenicity of HLA Class I and II Double Restricted Influenza A-Derived Peptides” (PLoS ONE, 2016)
Like-named read-outs stand apart in the source and are kept apart here. Where a SMILES comes first, the peptide text is derived from it.

Key:
[1] = biological target: HLA-A*02:01 (Homo sapiens, UniProt P04439, D140Y/D185E/D98H/E176V/E277Q/G131W/G231S/I119V/I121R/I166T/I218V/L300P/L318F/N151K/N90K/P208A/P217A/Q86G/Q94H/R138H/R169H/T345S); experiment: biochemical; assay type: binding
[2] = biological target: recombinant HLA-DRA*01:01/DRB1*01:01 molecules (Homo sapiens, UniProt P01903+P01911, A100R/D57E/F55L/F60I/F76Y/I96L/L162R/M171V/P40L/Q125E/R42F/V115G/Y59C); experiment: biochemical; assay type: binding
[3] = system: CD8 and CD4 T cells of HLA-A*02:01/HLA-DRB1*01:01 transgenic mice; assay type: in vivo; parameters: key: I, CD8 response; II, CD4 response; -,no response; settings: CAF09 + 20 nmol peptide i.p. three times at two week intervals; IFNγ ELISpot one week after last immunization (Fig 1)
[4] = […], peptide concentration at half-saturation as approximation of KD, read-out: HLA-A*02:01 Measured
[5] = read-out: HLA-DRB1*01:01 Measured

Molecule | Kd [1, 4] | Kd [2, 5] | other results
CSCC[C@H](NC(=O)CNC(=O)[C@H](CCSC)NC(=O)[C@@H](N)CCSC)C(=O)N[C@@H](Cc1ccccc1)C(=O)N[C@@H](CC(N)=O)C(=O)N[C@@H](CCSC)C(=O)N[C@@H](CC(C)C)C(=O)N[C@@H](CO)C(=O)N[C@H](C(=O)N[C@H](C(=O)O)C(C)C)[C@@H](C)O [PB1(408–418)] (H-MMGMFNMLSTV-OH) | 51 nM | 172 nM | 
CC(C)C[C@H](NC(=O)[C@H](CCCCN)NC(=O)[C@H](CC(C)C)NC(=O)[C@@H](NC(=O)[C@H](CC(N)=O)NC(=O)[C@H](CCC(N)=O)NC(=O)[C@H](CCCCN)NC(=O)[C@@H](NC(=O)[C@H](Cc1ccc(O)cc1)NC(=O)[C@H](CCCCN)NC(=O)[C@@H](N)Cc1ccc(O)cc1)C(C)C)[C@@H](C)O)C(=O)N[C@@H](C)C(=O)N[C@H](C(=O)N[C@@H](Cc1c[nH]cn1)C(=O)N[C@@H](Cc1c[nH]cn1)C(=O)N[C@@H](Cc1c[nH]cn1)C(=O)N[C@@H](Cc1c[nH]cn1)C(=O)N[C@@H](Cc1c[nH]cn1)C(=O)N[C@@H](Cc1c[nH]cn1)C(=O)O)[C@@H](C)O [Reference peptide, reference compound] (H-YKYVKQNTLKLATHHHHHH-OH) |  |  | Kd [2]: 8 nM
CSCC[C@H](NC(=O)[C@@H](N)CC(N)=O)C(=O)N[C@@H](CC(C)C)C(=O)N[C@@H](CO)C(=O)N[C@H](C(=O)N[C@H](C(=O)N[C@@H](CC(C)C)C(=O)NCC(=O)N[C@H](C(=O)O)C(C)C)C(C)C)[C@@H](C)O [PB1(413–421)] (H-NMLSTVLGV-OH) | 16 nM | > 5000 nM | 
CSCC[C@H](NC(=O)[C@H](CO)NC(=O)[C@H](CCC(=O)O)NC(=O)[C@H](CCSC)NC(=O)[C@@H](NC(=O)[C@H](CC(=O)O)NC(=O)[C@H](CCCCN)NC(=O)[C@H](CC(C)C)NC(=O)[C@@H](N)Cc1ccccc1)C(C)C)C(=O)O [PB1(166–174)] (H-FLKDVMESM-OH) | 51 nM |  | Kd [2]: > 5000 nM
CSCC[C@H](NC(=O)CN)C(=O)N[C@@H](Cc1ccccc1)C(=O)N[C@@H](CC(N)=O)C(=O)N[C@@H](CCSC)C(=O)N[C@@H](CC(C)C)C(=O)N[C@@H](CO)C(=O)N[C@H](C(=O)N[C@H](C(=O)O)C(C)C)[C@@H](C)O [PB1(410–418)] (H-GMFNMLSTV-OH) | 23 nM | 34 nM | 
CC[C@H](C)[C@H](NC(=O)[C@@H]1CCCN1C(=O)[C@H](CCCNC(=N)N)NC(=O)[C@@H](NC(=O)[C@H](CCCCN)NC(=O)[C@H](CC(C)C)NC(=O)[C@H](Cc1c[nH]c2ccccc12)NC(=O)[C@H](CCC(=O)O)NC(=O)[C@H](CCSC)NC(=O)[C@H](CC(C)C)NC(=O)[C@@H](N)C(C)C)[C@@H](C)O)C(=O)O [M(41–51)] (H-VLMEWLKTRPI-OH) | 101 nM | 119 nM | 
CC[C@H](C)[C@H](NC(=O)[C@@H]1CCCN1C(=O)[C@H](Cc1ccc(O)cc1)NC(=O)[C@H](CCCCN)NC(=O)[C@H](CCSC)NC(=O)[C@H](C)NC(=O)[C@H](CCSC)NC(=O)[C@H](CCSC)NC(=O)[C@@H](N)Cc1c[nH]c2ccccc12)C(=O)N[C@H](C(=O)N[C@@H](C)C(=O)O)[C@@H](C)O [PB2(49–59)] (H-WMMAMKYPITA-OH) | 75 nM | 528 nM | 
CC[C@H](C)[C@H](NC(=O)[C@H](CCSC)NC(=O)[C@H](C)NC(=O)[C@H](CC(C)C)NC(=O)[C@@H](N)Cc1ccccc1)C(=O)N[C@H](C(=O)N[C@@H](Cc1ccc(O)cc1)C(=O)N[C@@H](CCSC)C(=O)N[C@H](C(=O)O)[C@@H](C)O)[C@@H](C)O [PB1(318–326)] (H-FLAMITYMT-OH) | 253 nM | 557 nM | 
CC[C@H](C)[C@H](NC(=O)CNC(=O)[C@@H](NC(=O)[C@H](CC(C)C)NC(=O)[C@@H](N)CO)C(C)C)C(=O)N[C@@H](CC(=O)O)C(=O)N1CCC[C@H]1C(=O)N[C@@H](Cc1ccccc1)C(=O)N[C@@H](CCCNC(=N)N)C(=O)N[C@@H](CC(C)C)C(=O)O [NP(297–306)] (H-SLVGIDPFRL-OH) | 70 nM |  | Kd [2]: 460 nM
CSCC[C@H](NC(=O)CN)C(=O)N[C@@H](Cc1ccccc1)C(=O)N[C@@H](CC(N)=O)C(=O)N[C@@H](CCSC)C(=O)N[C@@H](CC(C)C)C(=O)N[C@@H](CO)C(=O)N[C@H](C(=O)N[C@H](C(=O)N[C@@H](CC(C)C)C(=O)O)C(C)C)[C@@H](C)O [PB1(410–419)] (H-GMFNMLSTVL-OH) | 384 nM | 29 nM | 
CC[C@H](C)[C@H](N)C(=O)N[C@H](C(=O)N[C@@H](CC(C)C)C(=O)N[C@@H](CCCCN)C(=O)N[C@@H](C)C(=O)N[C@@H](CC(N)=O)C(=O)N[C@@H](Cc1ccccc1)C(=O)N[C@@H](CO)C(=O)N[C@H](C(=O)O)C(C)C)[C@@H](C)CC [NS1(128–136)] (H-IILKANFSV-OH) | 45 nM | > 5000 nM | 
LLQNSQVYS [NP(306–315)] |  |  | Kd ([2]; pH 7, read-out: HLA-DRB1*01:01 Measured): > 5000 nM; Response: type of immune response, CD4 (second symbol) [3]: -
CC[C@H](C)[C@H](NC(=O)[C@H](CC(C)C)NC(=O)[C@H](C)NC(=O)[C@H](CO)NC(=O)[C@H](CCCNC(=N)N)NC(=O)[C@H](C)NC(=O)[C@H](CC(C)C)NC(=O)[C@@H](N)Cc1ccccc1)C(=O)N[C@@H](CC(C)C)C(=O)O [NP(258–266)] (H-FLARSALIL-OH) |  | 97 nM | Kd [1]: 0.9 nM
CSCC[C@H](NC(=O)[C@@H](N)Cc1ccccc1)C(=O)N[C@@H](CCC(N)=O)C(=O)N[C@@H](C)C(=O)N[C@@H](CC(C)C)C(=O)N[C@@H](Cc1c[nH]cn1)C(=O)N[C@@H](CC(C)C)C(=O)N[C@@H](CC(C)C)C(=O)N[C@@H](CC(C)C)C(=O)O [NS2(99–107)] (H-FMQALHLLL-OH) | 13 nM | > 5000 nM | 
CSCC[C@H](NC(=O)[C@@H](N)CCCNC(=N)N)C(=O)NCC(=O)N[C@@H](C)C(=O)N[C@H](C(=O)N[C@H](C(=O)N[C@H](C(=O)N[C@@H](CCC(=O)O)C(=O)N[C@H](C(=O)O)C(C)C)[C@@H](C)O)[C@@H](C)O)C(C)C [M(134–142)] (H-RMGAVTTEV-OH) |  | > 5000 nM | Kd [1]: 133 nM
CSCC[C@H](NC(=O)CNC(=O)[C@H](CCSC)NC(=O)[C@H](CCSC)NC(=O)[C@@H](N)CCSC)C(=O)N[C@@H](Cc1ccccc1)C(=O)N[C@@H](CC(N)=O)C(=O)N[C@@H](CCSC)C(=O)N[C@@H](CC(C)C)C(=O)N[C@@H](CO)C(=O)N[C@H](C(=O)O)[C@@H](C)O [PB1(407–417)] (H-MMMGMFNMLST-OH) | 36 nM | 315 nM | 
CC[C@H](C)[C@H](NC(=O)[C@H](CO)NC(=O)[C@H](CC(C)C)NC(=O)[C@H](CCCCN)NC(=O)[C@H](CC(C)C)NC(=O)[C@H](C)NC(=O)[C@H](CC(=O)O)NC(=O)[C@H](CCSC)NC(=O)[C@H](CC(C)C)NC(=O)[C@H](CC(C)C)NC(=O)[C@@H](N)Cc1ccccc1)C(=O)O [PA(282–292)] (H-FLLMDALKLSI-OH) | 24 nM | 23 nM | 
CC[C@H](C)[C@H](NC(=O)[C@@H]1CCCN1C(=O)[C@H](Cc1ccc(O)cc1)NC(=O)[C@H](CCCCN)NC(=O)[C@H](CCSC)NC(=O)[C@H](C)NC(=O)[C@H](CCSC)NC(=O)[C@H](CCSC)NC(=O)[C@@H](N)Cc1c[nH]c2ccccc12)C(=O)O [PB2(49–57)] (H-WMMAMKYPI-OH) | 36 nM | > 5000 nM | 
CC[C@H](C)[C@H](NC(=O)[C@H](CC(C)C)NC(=O)[C@@H](N)Cc1ccc(O)cc1)C(=O)N[C@@H](CCCNC(=N)N)C(=O)N[C@@H](C)C(=O)N[C@@H](CC(C)C)C(=O)N[C@H](C(=O)N[C@@H](CC(C)C)C(=O)N[C@@H](CC(N)=O)C(=O)N[C@H](C(=O)N[C@@H](CCSC)C(=O)O)[C@@H](C)O)[C@@H](C)O [PB1(217–227)] (H-YLIRALTLNTM-OH) | 46 nM | 76 nM | 
